Assay results published in patent US6207393A, “Inhibition of intracellular signal transduction by 14-3-3-binding peptides” (Washington University, priority 1999, dated 2001).
Several values for one entry are separate records, joined by “and”; a condition that tells them apart may be missing. Identical values can stand only once. Where a SMILES comes first, the peptide text is derived from it. Where no end group is shown, it is not given here. [ ]: non-standard residue; d: D form. pS = N[C@@H](COP(=O)(O)O)C(=O)O

Assays:
[1] = biological target: T1, 14-3-3 zeta (Homo sapiens, UniProt P63104); assay: SPR competitive inhibition of 14-3-3 zeta binding to chip-coupled phosphorylated Raf-259 peptide; conditions: 14-3-3 zeta 0.5-1.0 μM; competitor 1-50 μM; relative affinity only
T1 construct: made in house; host or cells: E. coli DH5α (vector pGEX-KT)
T1 sequence (P63104 1-245): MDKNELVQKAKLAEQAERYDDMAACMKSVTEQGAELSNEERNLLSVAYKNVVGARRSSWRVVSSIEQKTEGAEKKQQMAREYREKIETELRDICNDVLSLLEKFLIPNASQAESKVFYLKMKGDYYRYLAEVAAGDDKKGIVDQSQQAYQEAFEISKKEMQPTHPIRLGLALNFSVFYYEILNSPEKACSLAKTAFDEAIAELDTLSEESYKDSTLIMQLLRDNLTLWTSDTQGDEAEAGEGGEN
Procedure: (§1) The ability of each peptide to inhibit binding of 14-3-3 zeta to the phosphorylated peptide was then tested in a range of concentrations between 1 and 50 μM. 14-3-3 zeta was prepared according to the methods in Example 1 and binding affinities and specificities were determined using the peptides in Table 2. The 14-3-3 zeta fusion proteins (0.5-1.0 μM) were pre-incubated with a given peptide at concentrations between 1 μM and 50 μM. 14-3-3 zeta was then infused across a sensor chip surface which had been previously coupled with the phosphorylated Raf-259 peptide (SEQ ID NO: 4). IC50 values were determined by plotting the concentration of competitor peptide required to achieve a 50% reduction in equilibrium binding.

[2] = biological target: T2, 14-3-3 tau (Homo sapiens, UniProt P27348); assay: SPR competitive inhibition of 14-3-3 tau binding to phosphorylated Raf-259 peptide; conditions: isoform tau
T2 construct: made in house; host or cells: E. coli DH5α (vector pGEX-KT)
T2 sequence (P27348 1-245): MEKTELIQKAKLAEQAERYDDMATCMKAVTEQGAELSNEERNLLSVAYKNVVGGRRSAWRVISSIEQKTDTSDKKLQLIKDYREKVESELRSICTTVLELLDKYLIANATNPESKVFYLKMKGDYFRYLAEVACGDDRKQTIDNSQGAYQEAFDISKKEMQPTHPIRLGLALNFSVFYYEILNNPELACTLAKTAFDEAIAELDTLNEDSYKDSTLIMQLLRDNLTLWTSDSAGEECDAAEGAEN
Procedure: as §1
(§2) There are seven known isoforms of 14-3-3 which form homo- and heterodimers in vivo. If different isoforms of 14-3-3 could bind to proteins with distinct specificities, heterodimeric forms of 14-3-3 might function as modular linker proteins, bringing together different proteins into a single complex. We were, therefore, interested in determining whether different 14-3-3 isoforms recognize phosphoserine in a sequence specific fashion. This hypothesis was tested by expressing and purifying three other 14-3-3 isoforms, eta, beta and tau, and measuring their affinity towards the panel of phosphorylated peptides generated above. Using the Surface Plasmon Resonance method, the "on" and "off" rates for 14-3-3 binding to the phosphorylated Raf-259 peptide were calculated (Table 6).
(§3) Competitive inhibition with the mutated phosphorylated Raf-1 peptides was used to determine whether their specificities were similar (Table 7). In each case, the calculated IC50 s were very similar to those calculated for 14-3-3 zeta.

[3] = biological target: T3, 14-3-3 beta (Homo sapiens, UniProt P31946); assay: SPR competitive inhibition of 14-3-3 beta binding to phosphorylated Raf-259 peptide; conditions: isoform beta
T3 construct: made in house; host or cells: E. coli DH5α (vector pGEX-KT)
T3 sequence (P31946 1-246): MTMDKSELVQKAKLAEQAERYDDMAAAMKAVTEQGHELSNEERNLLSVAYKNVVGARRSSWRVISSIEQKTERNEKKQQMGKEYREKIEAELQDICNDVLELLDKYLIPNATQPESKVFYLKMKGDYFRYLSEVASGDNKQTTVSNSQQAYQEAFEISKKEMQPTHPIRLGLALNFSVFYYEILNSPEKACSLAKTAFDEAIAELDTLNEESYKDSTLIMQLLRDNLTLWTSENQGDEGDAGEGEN
Procedure: as §1, §2, §3

[4] = biological target: T4, 14-3-3 eta (Homo sapiens, UniProt Q04917); assay: SPR competitive inhibition of 14-3-3 eta binding to phosphorylated Raf-259 peptide; conditions: isoform eta
T4 construct: made in house; host or cells: E. coli DH5α (vector pGEX-KT)
T4 sequence (Q04917 1-246): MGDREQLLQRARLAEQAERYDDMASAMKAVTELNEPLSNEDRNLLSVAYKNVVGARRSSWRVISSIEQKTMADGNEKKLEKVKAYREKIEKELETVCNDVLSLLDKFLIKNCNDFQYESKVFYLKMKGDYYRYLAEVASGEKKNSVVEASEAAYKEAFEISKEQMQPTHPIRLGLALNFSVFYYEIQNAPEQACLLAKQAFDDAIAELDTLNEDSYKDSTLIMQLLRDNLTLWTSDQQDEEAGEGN
Procedure: as §1, §2, §3

[5] = biological target: T1, 14-3-3 zeta; assay: Surface plasmon resonance, GST-14-3-3 zeta binding to immobilized biotinylated Raf-259 peptide (binding and kinetics); conditions: 14-3-3 zeta
Procedure: These experiments were performed using the BIAcore 2000 (Pharmacia). The basic principles and detection methods have been reviewed previously (Jonsson et al. Biotech. 11:620-7, 1991; Jonsson et al. Ann Bio Clin 51:19-26, 1993 which are incorporated by reference). In brief, 5 μl of the biotinylated raf-259 peptide (1 nM) was immobilized onto streptavidin-coated (SA5, Pharmacia) sensor chips at a flow rate of 5 μl/min at 25° C. […] To phosphorylate the immobilized peptides, 5 U of PKA in a buffer containing 200 μM ATP in 50 μl was infused over the chip at a flow rate of 2 μl/min at 30° C.
Because the surface plasmon resonance detects binding in real time, this method can be used to directly determine the rates of association (kon) and dissociation (koff). For these kinetic measurements, GST/14-3-3 fusion proteins were injected over a range of concentrations between 200 nM and 5 μM. The "on" rate, kon, was determined by calculating dR/dt for the initial linear portion of association using the Biaevaluation software (Pharmacia). Because ligand rebinding to the sensor chip can affect the "off" rate (koff, Panayotou et al. Mol Cell Biol 13:3567-76, 1993 which is incorporated by reference), we measured the "off" rate in the presence of 50 μM free ligand by using the coinject function of the Biacore. The "off" rate measured in the absence of 50 μM free ligand was approximately 10-fold lower.
The biotinylated, […] Raf-1 peptide (SEQ ID NO: 4) was coupled to avidin coated chip surface to study the kinetics of its binding to 14-3-3 zeta. The association rate was determined to be approximately 2.3×10^4 M^-1×s^-1 and the dissociation rate was determined to be approximately 2.8×10^-3 s^-1. To minimize the effects of protein rebinding to the surface of the sensor chip, the dissociation rate was measured in the presence of 50 μM free phosphorylated Raf-1 peptide.

Molecule	IC50 [1]	IC50 [2]	IC50 [3]	IC50 [4]	Kd ([5]; KD = koff/kon, read-out: apparent KD measured by SPR)	koff ([5]; in the presence of 50 μM free phosphorylated Raf-1 peptide, read-out: dissociation rate)	kon ([5]; read-out: association rate)
CC(C)C[C@H](N)C(=O)N[C@@H](CO)C(=O)N[C@@H](CCC(N)=O)C(=O)N[C@@H](C)C(=O)N[C@@H](CCC(N)=O)C(=O)N[C@@H](CO)C(=O)N[C@@H](CCCNC(=N)N)C(=O)N[C@H](C(=O)N[C@@H](COP(=O)(O)O)C(=O)N[C@H](C(=O)N1CCC[C@H]1C(=O)N[C@@H](CC(N)=O)C(=O)N[C@H](C(=O)N[C@@H](Cc1c[nH]cn1)C(=O)N[C@@H](C)C(=O)O)C(C)C)[C@@H](C)O)[C@@H](C)O [Peptide R-2] (H-LSQAQSRT[pS]TPNVHA-OH)	> 50 µM	–	–	–	–	–	–
CC(C)C[C@H](N)C(=O)N[C@@H](CO)C(=O)N[C@@H](CCC(N)=O)C(=O)N[C@@H](CCCNC(=N)N)C(=O)N[C@@H](CCC(N)=O)C(=O)N[C@@H](C)C(=O)N[C@@H](CO)C(=O)N[C@H](C(=O)N[C@@H](COP(=O)(O)O)C(=O)N[C@H](C(=O)N1CCC[C@H]1C(=O)N[C@@H](CC(N)=O)C(=O)N[C@H](C(=O)N[C@@H](Cc1c[nH]cn1)C(=O)N[C@@H](C)C(=O)O)C(C)C)[C@@H](C)O)[C@@H](C)O [Peptide 256RA] (H-LSQRQAST[pS]TPNVHA-OH)	19 µM	–	–	–	–	–	–
CC(C)C[C@H](N)C(=O)N[C@@H](CO)C(=O)N[C@@H](CCC(N)=O)C(=O)N[C@@H](CCCNC(=N)N)C(=O)N[C@@H](CCC(N)=O)C(=O)N[C@@H](CCCNC(=N)N)C(=O)N[C@@H](COP(=O)(O)O)C(=O)N[C@H](C(=O)N[C@@H](CO)C(=O)N[C@H](C(=O)N1CCC[C@H]1C(=O)N[C@@H](CC(N)=O)C(=O)N[C@H](C(=O)N[C@@H](Cc1c[nH]cn1)C(=O)N[C@@H](C)C(=O)O)C(C)C)[C@@H](C)O)[C@@H](C)O [pS-Raf-257] (H-LSQRQR[pS]TSTPNVHA-OH)	> 50 µM	> 50 µM	> 50 µM	> 50 µM	–	–	–
CSCC[C@H](NC(=O)[C@H](Cc1c[nH]cn1)NC(=O)[C@@H](NC(=O)[C@H](CC(N)=O)NC(=O)[C@H](C)NC(=O)[C@@H](NC(=O)[C@H](COP(=O)(O)O)NC(=O)[C@@H](NC(=O)[C@H](CO)NC(=O)[C@H](CCCNC(=N)N)NC(=O)[C@H](CCC(N)=O)NC(=O)[C@H](CCCNC(=N)N)NC(=O)[C@H](CCC(N)=O)NC(=O)[C@H](CO)NC(=O)[C@@H](N)CC(C)C)[C@@H](C)O)[C@@H](C)O)C(C)C)C(=O)O [PA] (H-LSQRQRST[pS]TANVHM-OH)	~25 µM and 25 µM	27 µM	24 µM	20 µM	–	–	–
LSQRQRSTSTPNVHM [Raf-259, LSQRQRSTSTPNVHM, reference compound]	–	–	–	–	~0.122 µM	~0.0028 s⁻¹	~23000 M⁻¹ s⁻¹
CC(C)C[C@H](N)C(=O)N[C@@H](CO)C(=O)N[C@@H](CCC(N)=O)C(=O)N[C@@H](C)C(=O)N[C@@H](CCC(N)=O)C(=O)N[C@@H](CCCNC(=N)N)C(=O)N[C@@H](CO)C(=O)N[C@H](C(=O)N[C@@H](COP(=O)(O)O)C(=O)N[C@H](C(=O)N1CCC[C@H]1C(=O)N[C@@H](CC(N)=O)C(=O)N[C@H](C(=O)N[C@@H](Cc1c[nH]cn1)C(=O)N[C@@H](C)C(=O)O)C(C)C)[C@@H](C)O)[C@@H](C)O [Peptide 254RA] (H-LSQAQRST[pS]TPNVHA-OH)	9 µM	–	–	–	–	–	–
CC(C)C[C@H](N)C(=O)N[C@@H](CO)C(=O)N[C@@H](CCC(N)=O)C(=O)N[C@@H](C)C(=O)N[C@@H](CCC(N)=O)C(=O)N[C@@H](C)C(=O)N[C@@H](CO)C(=O)N[C@H](C(=O)N[C@@H](COP(=O)(O)O)C(=O)N[C@H](C(=O)N1CCC[C@H]1C(=O)N[C@@H](CC(N)=O)C(=O)N[C@H](C(=O)N[C@@H](Cc1c[nH]cn1)C(=O)N[C@@H](C)C(=O)O)C(C)C)[C@@H](C)O)[C@@H](C)O [254/256RA] (H-LSQAQAST[pS]TPNVHA-OH)	> 50 µM	> 50 µM	> 50 µM	> 50 µM	–	–	–
CC(C)C[C@H](N)C(=O)N[C@@H](CO)C(=O)N[C@@H](CCC(N)=O)C(=O)N[C@@H](CCCNC(=N)N)C(=O)N[C@@H](CCC(N)=O)C(=O)N[C@@H](CCCNC(=N)N)C(=O)N[C@@H](COP(=O)(O)O)C(=O)N[C@H](C(=O)N[C@@H](COP(=O)(O)O)C(=O)N[C@H](C(=O)N1CCC[C@H]1C(=O)N[C@@H](CC(N)=O)C(=O)N[C@H](C(=O)N[C@@H](Cc1c[nH]cn1)C(=O)N[C@@H](C)C(=O)O)C(C)C)[C@@H](C)O)[C@@H](C)O [pS-Raf-257,259] (H-LSQRQR[pS]T[pS]TPNVHA-OH)	> 50 µM	> 50 µM	> 50 µM	> 50 µM	–	–	–
CC(C)C[C@H](N)C(=O)N[C@@H](CO)C(=O)N[C@@H](CCC(N)=O)C(=O)N[C@@H](C)C(=O)N[C@@H](CCCNC(=N)N)C(=O)N[C@@H](CCC(N)=O)C(=O)N[C@@H](CO)C(=O)N[C@H](C(=O)N[C@@H](COP(=O)(O)O)C(=O)N[C@H](C(=O)N1CCC[C@H]1C(=O)N[C@@H](CC(N)=O)C(=O)N[C@H](C(=O)N[C@@H](Cc1c[nH]cn1)C(=O)N[C@@H](C)C(=O)O)C(C)C)[C@@H](C)O)[C@@H](C)O [Peptide R-4] (H-LSQARQST[pS]TPNVHA-OH)	11 µM	–	–	–	–	–	–
